Laboratory results published in ChEMBL document CHEMBL3124760, “Inhibitors of NS5A for Treatment of HCV Infection” (ACS Med Chem Lett, 2014).

Test system: Hepatitis C virus
Assay: Antiviral activity against Hepatitis C virus genotype 1a expressing neomycin phosphotransferase after 3 days by luciferase reporter gene assay
Format: functional, organism-based, Hepacivirus hominis
Settings: subtype 1a, 72 h

| SMILES | EC50 [pM] |
| --- | --- |
| COC(=O)N[C@H](C(=O)N1CC2(C[C@H]1c1nc3cc(-c4ccc5cc(-c6cnc([C@@H]7C[C@H]8C[C@H]8N7C(=O)[C@@H](NC(=O)OC)C(C)C)[nH]6)ccc5c4)ccc3c(=O)[nH]1)OCCCO2)C(C)C | 26 |
| COC(=O)N[C@H](C(=O)N1CCC[C@H]1c1ncc(-c2ccc3cc(-c4ccc5c(=O)[nH]c([C@@H]6C[C@@H]7CCCC[C@@H]7N6C(=O)[C@@H](NC(=O)OC)C(C)C)nc5c4)ccc3c2)[nH]1)C(C)C | 6 |
| COC(=O)N[C@H](C(=O)N1CCC[C@H]1c1nc2cc(-c3ccc4cc(-c5cnc([C@@H]6C[C@H]7C[C@H]7N6C(=O)[C@@H](NC(=O)OC)C(C)C)[nH]5)ccc4c3)ccc2c(=O)[nH]1)C(C)C | 6 |
| COC(=O)N[C@H](C(=O)N1CC2(C[C@H]1c1ncc(-c3ccc4cc(-c5ccc6c(=O)[nH]c([C@@H]7C[C@H]8C[C@H]8N7C(=O)[C@@H](NC(=O)OC)C(C)C)nc6c5)ccc4c3)[nH]1)OCCO2)C(C)C | 8 |
